Laboratory results reported in paper PMC2897767, “Two Distinct Mechanisms for Actin Capping Protein Regulation—Steric and Allosteric Inhibition” (PLoS Biology, 2010).
“Also recorded” adds a separate entry of the source. Where no end group is shown, it is not given here.

Key:
CPfull (wild type CP) = experiment: Actin polymerization assay (barbed end elongation from spectrin-actin seeds): inhibition of CP capping; type: biochemical, chicken; details: actin 1.2 µM (5% pyrene-labeled); for inhibition of CP capping activity by V-1 proteins: 3 nM wild type CP, various concentrations of V-1, 25°C (Figure S2); for inhibition of barbed end capping by CARMIL peptides: 3.6 nM CPfull, various peptide concentrations, 25°C (Figure 9D)
Method: (A) Superposition of the C-termini of the peptides. CD Phe505 and CK Arg169 are shown as stick models. The conserved proline at the C-terminus of the motifs is shown as balls. (B) CD2AP constructs used for biochemical assays. (C) CARMIL constructs used for biochemical assays. […] Actin (1.2 µM, 5% pyrene-labeled) was polymerized from spectrin-actin seeds in the presence of 3.6 nM CPfull (D), 10 nM CPβΔC (E), or 7.2 nM CPfull (F) with various concentrations of CARMIL peptides or GST-CA constructs.
The barbed end elongation assay from spectrin-actin seeds was performed essentially as previously described. Briefly, G-actin was stored in G-buffer (0.2 mM CaCl2, 0.2 mM ATP, 0.5 mM DTT and 10 mM imidazole, pH 7.0). At 90 s prior to polymerization, the Ca^2+ was replaced with Mg^2+, by the addition of 1/10 volume of 10 mM EGTA and 1 mM MgCl2 to G-actin. […] Actin polymerization was measured by monitoring the pyrene-actin fluorescence (excitation 370 nm; emission 410 nm) at 25°C.
(0.16 MB TIF) Click here for additional data file.

CP [1] = experiment: SPR binding of CP to immobilized GST-CD2AP / GST-CARMIL fragments; parameters: species or system chicken; details: 20°C; for kon / koff: SPR (Biacore), CP perfused, 1:1 binding model; for kon: GST-fusion immobilized via anti-GST antibody on CM5 chip, 50 mM KCl, 1 mM MgCl2, 0.005% Tween-20, 10 mM imidazole pH 7.0; for koff: GST-fusion immobilized
Method: Expression vectors for chicken CPfull and CPΔβC were constructed in pETDuet-1 by PCR, using pET-3d/CP [38] as the template. CP was expressed in E. coli Rosetta2 (DE3) and was purified as described. V-1 (human), expressed in E. coli Rosetta2 (DE3) as a GST-fusion protein, was affinity-purified and the tag was removed. Synthetic peptides derived from CARMIL proteins were obtained from Invitrogen. For crystallization, CP was incubated with a 1.2–2.0-fold molar excess of V-1 or CARMIL peptides at 4°C for 2 h, followed by gel filtration to purify the complexes. Expression vectors for the GST-CA constructs were prepared from the mouse cDNA clone as previously described. Vectors for GST-CD fragments were constructed by PCR cloning using a human whole brain cDNA library (Clontech) as the template. Amplified DNA fragments were cloned into pGEX-6P-1. GST-fusion proteins were expressed in E. coli Rosetta2 (DE3) cells and affinity-purified using glutathione sepharose resin. Mutations were introduced using a Quikchange mutagenesis kit (Stratagene). Actin was prepared from rabbit skeletal muscle, as previously described, and was further purified by gel filtration chromatography. Pyrene labeled-actin was prepared as described. Spectrin-actin seeds were prepared from rabbit red blood cells, as previously described.
(§1) The binding affinities of CP for V-1 or CARMIL proteins were evaluated by surface plasmon resonance measurements with Biacore 3000 or Biacore 2000 instruments (GE Healthcare). GST-fusion proteins (GST-V-1, GST-CA, or GST-CD) were immobilized onto a CM5 sensor chip up to 200 RU (response units; 200 pg/mm^2) via anti-GST antibodies. CP at various concentrations in running buffer (50 mM KCl, 1 mM MgCl2, 0.005% Tween-20, 10 mM imidazole, pH 7.0) was perfused over the chip at 20°C, at a flow rate of 20 µl/min. Response curves were obtained by subtracting the background signal generated simultaneously on a control flow cell with immobilized GST. To measure the effect of the CARMIL peptides on the facilitation of CP/V-1 dissociation (in Figure 11C and 11D), we used the “co-inject” mode for successive injections of the peptides followed by CP. Kinetic parameters were determined by fitting the sensorgrams to a simple 1∶1 binding model, using the Bia-evaluation software (GE Healthcare). KD values were obtained from the kinetic rate constants. […] KD values were evaluated by plotting these values against the concentrations of CP.

CPfull (CP wt) = experiment: SPR binding of CP to immobilized V-1; parameters: species or system chicken; details: V-1 mutant immobilized, analyte CP wt, equilibrium KD from Michaelis-Menten plots at saturated binding, not detectable = no binding at highest concentrations tested (≥ 50 µM)
Method: as §1
^a Kinetic parameters were determined by fitting of the sensorgrams to a 1:1 binding model. KD = koff / kon .
^b Kinetic parameters were not determined for mutant proteins, due to the fast dissociation of the complex (koff > 0.1 s^-1). […]

CP [2] = experiment: SPR competition with immobilized GST-CA92 for CP binding; parameters: species or system chicken; details: 50 nM wild type CP pre-mixed with various concentrations of peptide (Figure S7)
Method: (§2) GST-fusion proteins (GST-V-1, GST-CA, or GST-CD) were immobilized onto a CM5 sensor chip up to 200 RU (response units; 200 pg/mm^2) via anti-GST antibodies. […] Response curves were obtained by subtracting the background signal generated simultaneously on a control flow cell with immobilized GST. […] Kinetic parameters were determined by fitting the sensorgrams to a simple 1∶1 binding model, using the Bia-evaluation software (GE Healthcare). KD values were obtained from the kinetic rate constants.
(0.25 MB TIF) Click here for additional data file.

[3] = test system: CP wt / GST-V-1 interaction; experiment: SPR assay of the effect of CARMIL peptides on CP/V-1 binding; parameters: species or system chicken CP, human V-1
Method: GST-V-1 was immobilized on a sensor chip.
as §2

## V-1 W8A: V-1 point mutant Trp8 to Ala
CPfull (wild type CP)
  inhibition of CP capping activity by V-1 proteins: little inhibitory effect; also recorded: minimal effects on CP capping

## GST-CD47: GST fusion of human CD2AP residues 461–507 (FDSLTVRTSKETDVVNFDDIASSENLLHLTANRPKMPGRRLPGRFNG; also: GST fusion, end not given here)
CP [1]
  kon: 1.6e+06 M⁻¹ s⁻¹
CP [1]; pH 7.0
  koff: 0.029 s⁻¹

## V-1 D44R: V-1 point mutant Asp44 to Arg
CPfull (CP wt)
  KD: not detectable ^c
CPfull (wild type CP)
  inhibition of CP capping activity by V-1 proteins: little inhibitory effect; also recorded: minimal effects on CP capping

## GST-CA55: GST fusion of mouse CARMIL residues 962–1016 (FPSVRQEKRSSGLISELPSEEGRRLEHFTKLRPKRNKKQQPTQAAVCTISILPQD; also: GST fusion, end not given here)
CP [1]; pH 7.0
  koff: >0.1 s⁻¹
CP [1]; SPR, pH 7.0
  KD (in words): micromolar range

## GST-CD44: GST fusion of human CD2AP residues 461–504 (FDSLTVRTSKETDVVNFDDIASSENLLHLTANRPKMPGRRLPGR; also: GST fusion, end not given here)
CP [1]
  kon: 540000 M⁻¹ s⁻¹
CP [1]; pH 7.0
  koff: 0.033 s⁻¹

## V-1 E78R: V-1 point mutant Glu78 to Arg
CPfull (CP wt)
  Kd: 21 µM
CPfull (wild type CP)
  inhibition of CP capping activity by V-1 proteins: little inhibitory effect; also recorded: minimal effects on CP capping

## GST-CD43: GST fusion of human CD2AP residues 461–503 (FDSLTVRTSKETDVVNFDDIASSENLLHLTANRPKMPGRRLPG; also: GST fusion, end not given here)
CP [1]; pH 7.0
  koff: >0.1 s⁻¹

## CD30: peptide with 7 extra residues at the C-terminus of CD23 (NLLHLTANRPKMPGRRLPGRFNGGHSPTHS; UniProt Q9Y5K6 485-514, looked up, fragment)
CPfull (wild type CP)
  inhibition of barbed end capping by CARMIL peptides: higher CP inhibition activity than CD23

## CD23: synthetic peptide, human CD2AP residues 485–507 (CP-binding motif) (NLLHLTANRPKMPGRRLPGRFNG; UniProt Q9Y5K6 485-507, looked up, fragment)
CPfull (wild type CP)
  inhibition of barbed end capping by CARMIL peptides: moderately inhibited
CP [2]
  competition with immobilized GST-CA92 for CP binding: effectively compete
[3]; 45 nM CP wt perfused first, then 100 nM peptide, versus buffer control (Figure 11C)
  facilitation of dissociation of CP from immobilized GST-V-1: CP dissociated from V-1 quite rapidly
[3]; GST-V-1 immobilized, 100 nM peptide premixed with 45 nM CP wt (Figure 11A)
  inhibition of CP/V-1 complex formation: strongly inhibited
